What was measured:
[1] = tested on: redroot pigweed; experiment: Test Example 5: herbicidal effect by foliage application, plastic box (Table 20, symbol N); assay type: in vivo, redroot pigweed (Amaranthus retroflexus); conditions: foliage application, 320 g/ha, evaluated three weeks after application
Procedure, shortened: (§1)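 Plants were sown into sterilized diluvial soil under about 1.5 cm cover and kept in a greenhouse at 25° C. to 30° C. Fourteen days on, foliage received an even spray of the diluted emulsion. Herbicidal or crop effect was judged three weeks afterwards.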

[2] = tested on: chickweed; experiment: Test Example 5: herbicidal effect by foliage application, plastic box (Table 20, symbol P); assay type: in vivo, common chickweed (Stellaria media); conditions: foliage application, 320 g/ha, evaluated three weeks after application
Procedure, shortened: as §1

[3] = tested on: false cleavers; experiment: Test Example 4: herbicidal effect by soil treatment (Table 19, symbol Q); assay type: in vivo, false cleavers (Galium spurium); conditions: amount of applied herbicide 320 g/ha
Procedure, shortened: (§2)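 Pre-emergence style soil spray: seeds under ~1.5 cm sterilized diluvial soil received a uniform coat of emulsion diluted to the predetermined herbicide amount. Greenhouse 25–30° C; readout at week three on previously defined criteria.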

[4] = tested on: velvetleaf; experiment: Test Example 5: herbicidal effect by foliage application, plastic box (Table 20, symbol M); assay type: in vivo, velvetleaf (Abutilon theophrasti); conditions: foliage application, 320 g/ha, evaluated three weeks after application
Procedure, shortened: as §1

[5] = tested on: Italian ryegrass; experiment: Test Example 5: herbicidal effect by foliage application, plastic box (Table 20, symbol K); assay type: in vivo, Italian ryegrass (Lolium multiflorum); conditions: foliage application, 320 g/ha, evaluated three weeks after application
Procedure, shortened: as §1

[6] = tested on: windgrass; experiment: Test Example 5: herbicidal effect by foliage application, plastic box (Table 20, symbol L); assay type: in vivo, windgrass (Apera spica-venti); conditions: foliage application, 320 g/ha, evaluated three weeks after application
Procedure, shortened: as §1

[7] = tested on: green foxtail; experiment: Test Example 4: herbicidal effect by soil treatment (Table 19, symbol G); assay type: in vivo, green foxtail (Setaria viridis); conditions: amount of applied herbicide 320 g/ha
Procedure, shortened: as §2

[8] = tested on: windgrass; experiment: Test Example 4: herbicidal effect by soil treatment (Table 19, symbol L); assay type: in vivo, windgrass (Apera spica-venti); conditions: amount of applied herbicide 320 g/ha
Procedure, shortened: as §2

[9] = tested on: wild oat; experiment: Test Example 4: herbicidal effect by soil treatment (Table 19, symbol I); assay type: in vivo, wild oat (Avena fatua); conditions: amount of applied herbicide 320 g/ha
Procedure, shortened: as §2

[10] = tested on: barnyard grass; experiment: Test Example 3: herbicidal effect by foliage application, Wagner pot (Table 18, symbol H); assay type: in vivo, barnyard grass (Echinochloa crus-galli); conditions: amount of applied herbicide 320 g/ha
Procedure, shortened: (§3)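 Plants were sown in alluvial soil held under 0.1–0.5 cm standing water and grown 14 days in a greenhouse at 25–30 °C. An emulsifiable formulation, water-diluted to the set dose, was then sprayed onto the foliage, and effects were scored three weeks later using previously defined criteria.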

[11] = tested on: redroot pigweed; experiment: Test Example 4: herbicidal effect by soil treatment (Table 19, symbol N); assay type: in vivo, redroot pigweed (Amaranthus retroflexus); conditions: amount of applied herbicide 320 g/ha
Procedure, shortened: as §2

[12] = tested on: green foxtail; experiment: Test Example 5: herbicidal effect by foliage application, plastic box (Table 20, symbol G); assay type: in vivo, green foxtail (Setaria viridis); conditions: foliage application, 320 g/ha, evaluated three weeks after application
Procedure, shortened: as §1

[13] = tested on: Chinese sprangletop; experiment: Test Example 3: herbicidal effect by foliage application, Wagner pot (Table 18, symbol D); assay type: in vivo, chinese sprangletop (Leptochloa chinensis); conditions: amount of applied herbicide 320 g/ha
Procedure, shortened: as §3

[14] = tested on: persian speedwell; experiment: Test Example 4: herbicidal effect by soil treatment (Table 19, symbol R); assay type: in vivo, Persian speedwell (Veronica persica); conditions: amount of applied herbicide 320 g/ha
Procedure, shortened: as §2

[15] = tested on: chickweed; experiment: Test Example 4: herbicidal effect by soil treatment (Table 19, symbol P); assay type: in vivo, common chickweed (Stellaria media); conditions: amount of applied herbicide 320 g/ha
Procedure, shortened: as §2

[16] = tested on: blackgrass; experiment: Test Example 5: herbicidal effect by foliage application, plastic box (Table 20, symbol J); assay type: in vivo, blackgrass (Alopecurus myosuroides); conditions: foliage application, 320 g/ha, evaluated three weeks after application
Procedure, shortened: as §1

[17] = tested on: lambsquarters; experiment: Test Example 4: herbicidal effect by soil treatment (Table 19, symbol O); assay type: in vivo, lambsquarters (Chenopodium album); conditions: amount of applied herbicide 320 g/ha
Procedure, shortened: as §2

[18] = tested on: blackgrass; experiment: Test Example 4: herbicidal effect by soil treatment (Table 19, symbol J); assay type: in vivo, blackgrass (Alopecurus myosuroides); conditions: amount of applied herbicide 320 g/ha
Procedure, shortened: as §2

[19] = tested on: lambsquarters; experiment: Test Example 5: herbicidal effect by foliage application, plastic box (Table 20, symbol O); assay type: in vivo, lambsquarters (Chenopodium album); conditions: foliage application, 320 g/ha, evaluated three weeks after application
Procedure, shortened: as §1

[20] = tested on: wild oat; experiment: Test Example 5: herbicidal effect by foliage application, plastic box (Table 20, symbol I); assay type: in vivo, wild oat (Avena fatua); conditions: foliage application, 320 g/ha, evaluated three weeks after application
Procedure, shortened: as §1

[21] = tested on: Italian ryegrass; experiment: Test Example 4: herbicidal effect by soil treatment (Table 19, symbol K); assay type: in vivo, Italian ryegrass (Lolium multiflorum); conditions: amount of applied herbicide 320 g/ha
Procedure, shortened: as §2

[22] = tested on: rice flat sedge; experiment: Test Example 3: herbicidal effect by foliage application, Wagner pot (Table 18, symbol E); assay type: in vivo, rice flat sedge (Cyperus iria); conditions: amount of applied herbicide 320 g/ha
Procedure, shortened: as §3

[23] = tested on: persian speedwell; experiment: Test Example 5: herbicidal effect by foliage application, plastic box (Table 20, symbol R); assay type: in vivo, Persian speedwell (Veronica persica); conditions: foliage application, 320 g/ha, evaluated three weeks after application
Procedure, shortened: as §1

[24] = tested on: velvetleaf; experiment: Test Example 4: herbicidal effect by soil treatment (Table 19, symbol M); assay type: in vivo, velvetleaf (Abutilon theophrasti); conditions: amount of applied herbicide 320 g/ha
Procedure, shortened: as §2

[25] = tested on: barnyard grass; experiment: Test Example 4: herbicidal effect by soil treatment (Table 19, symbol H); assay type: in vivo, barnyard grass (Echinochloa crus-galli); conditions: amount of applied herbicide 320 g/ha
Procedure, shortened: as §2

[26] = tested on: southern crabgrass; experiment: Test Example 4: herbicidal effect by soil treatment (Table 19, symbol F); assay type: in vivo, southern crabgrass (Digitaria ciliaris); conditions: amount of applied herbicide 320 g/ha
Procedure, shortened: as §2

[27] = tested on: southern crabgrass; experiment: Test Example 5: herbicidal effect by foliage application, plastic box (Table 20, symbol F); assay type: in vivo, southern crabgrass (Digitaria ciliaris); conditions: foliage application, 320 g/ha, evaluated three weeks after application
Procedure, shortened: as §1

[28] = tested on: barnyard grass; experiment: Test Example 5: herbicidal effect by foliage application, plastic box (Table 20, symbol H); assay type: in vivo, barnyard grass (Echinochloa crus-galli); conditions: foliage application, 320 g/ha, evaluated three weeks after application
Procedure, shortened: as §1

Compound: CCCC(=O)Oc1c(C)nn(C)c(=O)c1-c1c(-c2ccc3c(c2)OCO3)sc2ccc(C)cc12 [2-157]
- herbicidal effect on N: redroot pigweed (criteria 0-5) [1]: 3 (Herbicidal rate of 40% or more and less than 70%)
- herbicidal effect on P: chickweed (criteria 0-5) [2]: 0 (Herbicidal rate of 5% or less (almost no effect))
- Q: false cleavers, herbicidal effect rating [3]: 0 (Herbicidal rate of 5% or less (almost no effect))
- herbicidal effect on M: velvetleaf (criteria 0-5) [4]: 0 (Herbicidal rate of 5% or less (almost no effect))
- herbicidal effect on K: Italian ryegrass (criteria 0-5) [5]: 0 (Herbicidal rate of 5% or less (almost no effect))
- herbicidal effect on L: windgrass (criteria 0-5) [6]: 0 (Herbicidal rate of 5% or less (almost no effect))
- G: green foxtail, herbicidal effect rating [7]: 0 (Herbicidal rate of 5% or less (almost no effect))
- L: windgrass, herbicidal effect rating [8]: 0 (Herbicidal rate of 5% or less (almost no effect))
- I: wild oat, herbicidal effect rating [9]: 0 (Herbicidal rate of 5% or less (almost no effect))
- herbicidal effect on H: barnyard grass [10]: 3 (Herbicidal rate of 40% or more and less than 70%)
- N: redroot pigweed, herbicidal effect rating [11]: 0 (Herbicidal rate of 5% or less (almost no effect))
- herbicidal effect on G: green foxtail (criteria 0-5) [12]: 0 (Herbicidal rate of 5% or less (almost no effect))
- herbicidal effect on D: Chinese sprangletop [13]: 0 (Herbicidal rate of 5% or less (almost no effect))
- R: persian speedwell, herbicidal effect rating [14]: 3 (Herbicidal rate of 40% or more and less than 70%)
- P: chickweed, herbicidal effect rating [15]: 4 (Herbicidal rate of 70% or more and less than 90%)
- herbicidal effect on J: blackgrass (criteria 0-5) [16]: 0 (Herbicidal rate of 5% or less (almost no effect))
- O: lambsquarters, herbicidal effect rating [17]: 0 (Herbicidal rate of 5% or less (almost no effect))
- J: blackgrass, herbicidal effect rating [18]: 0 (Herbicidal rate of 5% or less (almost no effect))
- herbicidal effect on O: lambsquarters (criteria 0-5) [19]: 0 (Herbicidal rate of 5% or less (almost no effect))
- herbicidal effect on I: wild oat (criteria 0-5) [20]: 0 (Herbicidal rate of 5% or less (almost no effect))
- K: Italian ryegrass, herbicidal effect rating [21]: 0 (Herbicidal rate of 5% or less (almost no effect))
- herbicidal effect on E: rice flat sedge [22]: 0 (Herbicidal rate of 5% or less (almost no effect))
- herbicidal effect on R: persian speedwell (criteria 0-5) [23]: 4 (Herbicidal rate of 70% or more and less than 90%)
- M: velvetleaf, herbicidal effect rating [24]: 0 (Herbicidal rate of 5% or less (almost no effect))
- H: barnyard grass, herbicidal effect rating [25]: 0 (Herbicidal rate of 5% or less (almost no effect))
- F: southern crabgrass, herbicidal effect rating [26]: 0 (Herbicidal rate of 5% or less (almost no effect))
- herbicidal effect on F: southern crabgrass (criteria 0-5) [27]: 0 (Herbicidal rate of 5% or less (almost no effect))
- herbicidal effect on H: barnyard grass (criteria 0-5) [28]: 0 (Herbicidal rate of 5% or less (almost no effect))
